The values below come from article PMC6259618 (Molecules, 2011).

Where two headings read alike, the source gives them in different places. Where a SMILES comes first, the peptide text is derived from it. Where no end group is shown, it is not given here. The star is where a group is joined. DOTA = O=C(O)CN1CCN(CC(=O)O)CCN(CC(=O)*)CCN(CC(=O)O)CC1

Data set [1] relates to human prostate carcinoma PC-3 cells. It is filed as binding. Conditions: for Binding inhibition by unlabeled DUP-1: ^125I-labeled ligand on PC-3 cells, competitor unlabeled DUP-1 at 10^-4 M. Here is the method:
The human prostate carcinoma cell line PC-3 (American Type Culture Collection, Manassas, VA, USA) was cultivated at 37 °C in a 5% CO2 incubator in RPMI 1640 with Glutamax containing 10% FCS (Invitrogen, Karlsruhe, Germany) and 25 mmol/L HEPES.
200,000 cells were seeded in 6-well plates and cultivated for 24 hours. The medium was replaced by 1 mL fresh medium (without FCS). ^125I-labeled or ^111In-labeled peptide was added to the cell culture (1–2 × 10^6 cpm per well) and incubated for various time periods. Thereafter, the cells were washed thrice with 1 mL phosphate buffer saline (PBS) and subsequently lysed with 0.3 mol/L NaOH (0.5 mL). Radioactivity was measured with a γ-counter and calculated as percentage applied dose per 10^6 cells. For competition experiments co-incubation was performed with the unlabeled peptide at a defined concentration. If BSA or dry milk powder was used as blocking agents, it was added to a final concentration of 1% in medium without FCS.

The nature of a further data set: in vivo. Conditions: male, BALB/c nu/nu, mouse, iv, total radioactivity; for tissue to tissue ratio at 0.25 h / tissue to tissue ratio at 1 h: Tumor-to-organ ratio. Here is the method: (§1) Male 6-week-old BALB/c nu/nu mice were obtained from Charles River WIGA (Sulzfeld, Germany) and housed in VentiRacks. For inoculation of the tumors, a Matrigel matrix/cell (5 × 10^6 cells) suspension was injected subcutaneously into the flank of the animals. Tumors were grown up to a size of ~1.0 cm^3. ^111In-labeled or ^131I-labeled peptide was injected via the tail vein into the animals, carrying PC-3 prostate tumors. At defined time points post injection, the mice were sacrificed. Tumor, blood and selected tissues (heart, lung, spleen, liver, kidney, muscle, intestinum and brain) were removed, drained of blood, weighed, and the radioactivity was measured with a γ-counter (LB 951G, Berthold Technologies). The percentage injected dose per gram of tissue (%ID/g) was calculated. All animal experiments were carried out in conformity with the German law for protection of animals and are in compliance with European laws.

The subject of data set [2] is human prostate carcinoma PC-3 cells. The following applies: for Incubation time to maximal radioligand binding / binding saturation: ^111In- or ^125I-labeled peptide, medium without FCS, gamma-counter; for Binding as % of the native molecule (DUP-1) capacity: ^125I-labeled.
Experimental: Direct radiolabeling with ^125I was performed on the tyrosine moiety using the chloramine-T method. A 10^−3 M aqueous solution of the respective peptide (5–25 µL, 5–25 nmol) was added to 0.25 M phosphate buffer (25 µL, pH 7.5). A radioactivity amount of 1–10 MBq ^125I- or ^131I- was added to this mixture and vortexed for 30 sec. The labeling reaction was quenched by adding 10 µL of a saturated aqueous methionine solution. The radiolabeled peptide was purified by HPLC on a Lichrosorb RP-select B 5 µm, 250 × 4 mm column using a linear solvent gradient system.
Radiolabeling was performed by complexation with ^111In-chloride. One microliter of a 10^−3 M solution of DOTA-Lys-DUP-1 in 50% dimethyl sulfoxide in water was mixed with sodium acetate buffer (25 µL, pH 5), and 10 MBq ^111InCl3 (PerkinElmer, Rodgau) was added. The solution was heated at 95 °C for 25 min. Quality control was performed by HPLC showing a radiochemical purity >95%.
For data set [3] the following is noted: native DUP-1, not among the peptides tested here; earlier work; cited from earlier work.
Data set [4] deals with PC-3 tumors. The following applies: cited from earlier work; for Tumor binding: iodinated native ligand. Here is the method: A linear peptide with affinity for prostate carcinoma was identified in our group using phage display techniques. The peptide, […], was isolated on prostate-specific membrane antigen-negative cells and evaluated both in vitro and in vivo. Chemical synthesized […] was tested for binding affinity, specificity, kinetics and internalization. In vivo tumor accumulation and organ distribution was evaluated in a nude mouse model, carrying subcutaneously human prostate carcinoma cells. […] A possible explanation for the rapid clearance is the higher polarity of the DOTA conjugate.

Data set [5] deals with human prostate carcinoma PC-3 cells. On the set-up: method as in PMID 15671538. The following applies: ^125I-DUP-1, 'has been shown to be'; earlier work; cited from earlier work.
A further data set can be described thus: human serum. The following applies: 37 °C, up to 6 hours.
The test system of data set [6] is PC-3 tumors. The data set is described as follows: in vivo. Conditions: mouse. Here is the method:
as §1

The mark [7] stands for this setting: PC-3 cells, after 10 min incubation.
The mark [8] stands for this setting: PC-3 cells, after 60 min incubation.
Where [9] appears, read: ^125I-labeled fragments, PC-3 cells, after binding saturation.

As a reminder, the IC50 is the concentration that inhibits the measured activity by half. As a reminder, the tissue uptake is the share of the injected amount in each gram of the tissue. `C[C@H](NC(=O)[C@H](CCCNC(=N)N)NC(=O)[C@H](CC(N)=O)NC(=O)[C@@H]1CCCN1C(=O)[C@H](CCCNC(=N)N)NC(=O)[C@@H](N)Cc1ccccc1)C(=O)N[C@@H](CCC(N)=O)C(=O)N[C@@H](CC(=O)O)C(=O)N[C@@H](Cc1ccc(O)cc1)C(=O)N[C@@H](CC(N)=O)C(=O)N[C@H](C(=O)N[C@@H](CC(N)=O)C(=O)N[C@@H](CCCCNC(=O)CN1CCN(CC(=O)O)CCN(CC(=O)O)CCN(CC(=O)O)CC1)C(N)=O)[C@@H](C)O` (111In complex, metal not drawn) [DOTA-Lys-DUP-1] (H-FRPNRAQDYNTNK(DOTA)-NH2) showed an IC50 in data set [1] (24 h) of 3.3 µM. For the same compound, the tissue uptake at 0.25 h in “in vivo” was 2.1 %ID/g. Moreover, the tissue uptake at 1 h in the data set “in vivo” is 0.14 %ID/g. Besides, the tissue to tissue ratio at 0.25 h in the data set “in vivo” (Blood) is 0.79 ± 0.198; in “in vivo” (Brain) it was 18.6 ± 4.05; in the data set “in vivo” (Heart) it was 1.99 ± 0.459; in the data set “in vivo” (Intestine), 2.46 ± 0.391; in the data set “in vivo” (Kidney), 0.124 ± 0.028; in “in vivo” (Liver), 2.35 ± 0.196. Besides, the tissue to tissue ratio at 0.25 h in “in vivo” (Lung) stood at 0.823 ± 0.167; in “in vivo” (Muscle), 3.39 ± 0.833; in “in vivo” (Spleen), 3.02 ± 0.793; in the data set “in vivo” (Tumor), 1. Further, the tissue to tissue ratio at 1 h was found to be 3.45 ± 0.261 in the data set “in vivo” (Blood); 14.8 ± 4.73 in “in vivo” (Brain); 7.79 ± 0.578 in the data set “in vivo” (Heart); 4.79 ± 2.13 in “in vivo” (Intestine); 0.063 ± 0.012 in the data set “in vivo” (Kidney); 3.81 ± 0.07 in the data set “in vivo” (Liver). For the same compound, the tissue to tissue ratio at 1 h came out at 2.9 ± 0.142 in “in vivo” (Lung), 8.05 ± 6.85 in the data set “in vivo” (Muscle), 5.71 ± 1.09 in the data set “in vivo” (Spleen) and 1 in the data set “in vivo” (Tumor).
C-FRPNRAQDYNTN-C (disulfide) [cDUPc]: the “Binding inhibition by unlabeled DUP-1” value in data set [1] is recorded as “up to 90%”. In data set [2] (PC-3 cells), the “Incubation time to maximal radioligand binding / binding saturation” value amounted to 60 min. In addition, the results for the “Binding as % of the native molecule (DUP-1) capacity” value in data set [2] (setting [7]) and in data set [2] (setting [8]) were “about 7%” and “about 19%”, respectively.
Turning to “FRPNRAQDYNTN [DUP-1, tested ^125I-/^131I-labeled]”, the Serum half life in data set [3] is on record as 2 min. For the same compound, the Tumor binding result in the data set with PC-3 tumors [4] (15 min circulation in mice) was “about 7%”; with PC-3 tumors [4] (45 min circulation in mice), “about 4%”. Further, the Kidney radioactivity entry in the data set with PC-3 tumors [4] (iodinated peptide, 15 min) is “about 8 % ID/g”. In addition, the “Increase of radioligand-binding in the prostate tumor compared to normal prostate tissue” value with PC-3 tumors [4] (organ distribution, nude mouse model) was “up to 300%”. The “Incubation time to maximal radioligand binding / binding saturation” value in data set [2] (PC-3 cells) is given as 5 min. The “Binding, percentage applied dose per 10^6 cells” value in data set [2] (PC-3 cells, radiolabeled peptide, maximal binding) is on record as “about 12 % applied dose per 10^6 cells”. In addition, in data set [5], the IC50 is 0.177 µM.
On to FRPNRAY [DUP-1-6-Y], for which, in data set [2], the “Binding as % of the leader peptide DUP-1” value is given as “about 82%”.
As for “H-FRPNRAQDYNTNK(DOTA)-NH2 (SMILES C[C@H](NC(=O)[C@H](CCCNC(=N)N)NC(=O)[C@H](CC(N)=O)NC(=O)[C@@H]1CCCN1C(=O)[C@H](CCCNC(=N)N)NC(=O)[C@@H](N)Cc1ccccc1)C(=O)N[C@@H](CCC(N)=O)C(=O)N[C@@H](CC(=O)O)C(=O)N[C@@H](Cc1ccc(O)cc1)C(=O)N[C@@H](CC(N)=O)C(=O)N[C@H](C(=O)N[C@@H](CC(N)=O)C(=O)N[C@@H](CCCCNC(=O)CN1CCN(CC(=O)O)CCN(CC(=O)O)CCN(CC(=O)O)CC1)C(N)=O)[C@@H](C)O)”, the cleaved bond result in “human serum” is “phenylalanine1-R2, first_seen, 5 min”.
Regarding “NRAQDY [DUP-4-9, fragment NRAQDY, middle part of DUP-1]”, the IC50 in data set [1] (^125I-labeled DUP-4-9 on PC-3 cells, unlabeled peptide as competitor, read-out: IC50) was 3.5 µM. Also, the “Binding inhibition by unlabeled DUP-1” value in data set [1] was “about 99%”. Besides, the “Incubation time to maximal radioligand binding / binding saturation” value in data set [2] (PC-3 cells) amounted to 30 min. Besides, the “Binding as % of the leader peptide DUP-1” value in data set [2] (setting [9]) is given as “about 70%”. Further, in the data set with PC-3 tumors [6], the Activity in kidneys was 15.48 % ID/g and the Radioactivity in blood entry was “about 5.5 % ID/g”.
As to QDYNTN [DUP-7-12], the “Binding as % of the leader peptide DUP-1” value in data set [2] (setting [9]) is on record as “reduced binding capacity to the background level”.
As for fRPNRAQDYNTN [dPhe-DUP-1], the “Binding inhibition by unlabeled DUP-1” value in data set [1] is reported as “up to 94%”. Besides, the “Incubation time to maximal radioligand binding / binding saturation” value in data set [2] (PC-3 cells) was determined as 60 min. Also, the “In vitro binding capacity relative to DUP-1” value in data set [2] (PC-3 cells, summary in discussion, incubation time not printed at place) is listed as “about 25%”. For the same compound, the “Binding as % of the native molecule (DUP-1) capacity” value in data set [2] (setting [7]) is reported as “about 8.5%”; in data set [2] (setting [8]) it was “about 25%”.
